Measurements: patent publication US8343961B2, “Substituted heterocyclic compounds” (ArQule, Inc., priority 2009, dated 2013)

Key:
RET kinase = RET kinase (Homo sapiens, UniProt P07949); assay: RET Kinase Activity Assay; assay type: biochemical; conditions: read-out: Ret, % INH, at 30 uM
Outline: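 RET […] was preincubated with compound for 15 min, then phosphorylated biotinylated Pyk-2 substrate for 1 h at room temperature with 75 μM ATP and 10 mM MgCl2. Product was captured on streptavidin plates and detected with anti-phosphotyrosine, an AP-tagged secondary antibody and Attophos fluorescence.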

EphA8 = molecular target: T1, EphA8 (Homo sapiens, UniProt P29322); assay: EphA8 Kinase Activity Assay; assay type: biochemical; conditions: read-out: EphA8, % INH, at 30 uM
T1 sequence (P29322 28-1005): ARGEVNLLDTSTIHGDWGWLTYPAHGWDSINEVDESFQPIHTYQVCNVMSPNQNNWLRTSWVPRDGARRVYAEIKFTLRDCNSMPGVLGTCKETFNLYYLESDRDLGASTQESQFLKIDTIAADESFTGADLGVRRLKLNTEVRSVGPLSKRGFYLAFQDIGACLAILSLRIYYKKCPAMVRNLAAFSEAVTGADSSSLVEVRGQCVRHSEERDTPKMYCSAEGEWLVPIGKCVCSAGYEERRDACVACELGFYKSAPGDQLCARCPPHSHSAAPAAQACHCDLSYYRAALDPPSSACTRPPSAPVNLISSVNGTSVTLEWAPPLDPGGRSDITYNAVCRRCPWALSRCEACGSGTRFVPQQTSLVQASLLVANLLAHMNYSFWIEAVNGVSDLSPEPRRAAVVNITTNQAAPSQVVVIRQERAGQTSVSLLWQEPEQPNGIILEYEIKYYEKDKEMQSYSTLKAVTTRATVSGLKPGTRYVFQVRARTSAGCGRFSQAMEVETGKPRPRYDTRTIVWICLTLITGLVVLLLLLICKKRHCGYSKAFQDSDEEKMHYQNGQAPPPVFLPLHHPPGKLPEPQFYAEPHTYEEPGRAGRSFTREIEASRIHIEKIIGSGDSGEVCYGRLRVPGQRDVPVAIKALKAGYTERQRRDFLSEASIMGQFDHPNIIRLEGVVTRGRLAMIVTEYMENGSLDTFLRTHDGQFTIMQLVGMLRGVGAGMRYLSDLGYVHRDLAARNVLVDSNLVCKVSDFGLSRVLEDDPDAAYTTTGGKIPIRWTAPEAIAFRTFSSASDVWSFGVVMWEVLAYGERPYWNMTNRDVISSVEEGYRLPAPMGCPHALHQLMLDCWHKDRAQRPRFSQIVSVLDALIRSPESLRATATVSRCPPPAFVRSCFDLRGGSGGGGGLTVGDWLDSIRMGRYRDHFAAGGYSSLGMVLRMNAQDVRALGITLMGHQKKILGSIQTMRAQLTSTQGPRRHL
Experimental: Nunc Maxisorb plates are coated with streptavidin by overnight incubation with 100 μL per well of 1 μg/ml Streptavidin in DPBS. Prior to the start of the experiment, the plates are washed with TBST (3×200 μL) and blocked for at least 1 hour by adding 150 μL of 5% BSA/TBST. The plates are washed with TBST (3×200 μL/well) and left dry immediately before the capture step.
The test articles and control (Staurosporine) are prepared using the following assay buffer @ 3× desired final concentration (50 mM Tris-HCl, 0.02 mg/ml BSA, 10 mM MgCl2, 0.1 mM Na3VO4, 1 mM EGTA, 12.5 μM ATP, 0.01% NP-40, 1 mM DTT in 10% glycerol/water). In a reaction plate are added rapidly 20 μl test article (or control) and 20 μl EphA8 (0.12 ng/μl final concentration). The plate is incubated for 15 minutes. To the reaction plate is added 20 μl of Pyk-2 (0.75 ng/μl final concentration). The plate is incubated at room temperature for one hour. From the reaction plate, 50 μl is transferred to the streptavidin coated plate. The capture plate is incubated at room temperature for 30 minutes, then washed 6× with TBST. To the capture plate is added 100 μL/well of Cell Signaling anti-phospho tyrosine at a dilution of 1:3000 in 2% BSA/TBST. The plate is incubated for one hour at room temperature then washed 6× with TBST. To the capture plate is added 100 μL/well of Alkaline Phosphatase Tagged Goat anti Mouse Antibody at a dilution of 1:4000 in 2% BSA/TBST. The plate is incubated for one hour at room temperature then washed 6× with TBST. The fluorescent readout is initiated by the addition of 100 μl/well of Attophos reagent (6 mg/10 mL). The reading is done on the Perkin Elmer Envision system.

Chain of RET kinase (P07949 29-1114): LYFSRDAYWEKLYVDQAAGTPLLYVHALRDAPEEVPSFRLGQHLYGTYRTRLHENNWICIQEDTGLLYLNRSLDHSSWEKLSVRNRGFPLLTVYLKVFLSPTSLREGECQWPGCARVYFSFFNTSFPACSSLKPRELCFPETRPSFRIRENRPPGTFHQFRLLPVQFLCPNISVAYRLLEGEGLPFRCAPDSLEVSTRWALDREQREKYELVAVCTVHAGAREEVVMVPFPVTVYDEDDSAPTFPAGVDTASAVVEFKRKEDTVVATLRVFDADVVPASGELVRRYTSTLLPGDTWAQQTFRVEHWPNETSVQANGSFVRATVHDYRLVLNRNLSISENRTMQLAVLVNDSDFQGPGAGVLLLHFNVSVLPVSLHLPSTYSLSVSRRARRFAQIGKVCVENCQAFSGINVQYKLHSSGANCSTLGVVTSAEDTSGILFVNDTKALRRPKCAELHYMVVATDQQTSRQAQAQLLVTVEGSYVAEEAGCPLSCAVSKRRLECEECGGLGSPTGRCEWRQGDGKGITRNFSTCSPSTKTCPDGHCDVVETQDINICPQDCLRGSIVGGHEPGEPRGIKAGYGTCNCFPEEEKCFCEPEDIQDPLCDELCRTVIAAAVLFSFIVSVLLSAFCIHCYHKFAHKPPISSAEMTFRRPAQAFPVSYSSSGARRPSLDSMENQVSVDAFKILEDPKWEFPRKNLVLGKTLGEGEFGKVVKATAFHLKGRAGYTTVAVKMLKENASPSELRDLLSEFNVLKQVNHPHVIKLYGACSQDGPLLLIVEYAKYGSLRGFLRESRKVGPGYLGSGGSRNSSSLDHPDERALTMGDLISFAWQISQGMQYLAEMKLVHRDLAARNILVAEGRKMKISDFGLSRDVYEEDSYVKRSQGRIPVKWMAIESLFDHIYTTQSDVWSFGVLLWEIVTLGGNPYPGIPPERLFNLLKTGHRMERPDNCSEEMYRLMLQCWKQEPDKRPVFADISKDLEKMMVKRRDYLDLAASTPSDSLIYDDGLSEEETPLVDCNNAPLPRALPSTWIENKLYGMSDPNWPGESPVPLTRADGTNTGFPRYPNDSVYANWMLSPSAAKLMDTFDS

Row | SMILES | inhibition at 30 µM (RET kinase) [%] | inhibition at 30 µM (EphA8) [%]
1 | Nc1nc(N2CCN(Cc3ccc(F)cc3F)c3ccccc3C2)c2cn[nH]c2n1 [Compound 38, 4-[1-(2,4-difluorobenzyl)-1,2,3,5-tetrahydro-4H-1,4-benzodiazepin-4-yl]-1H-pyrazolo[3,4-d]pyrimidin-6-amine] | < 50 | < 50
2 | Nc1nc(N2CCN(CCCc3ccccc3)c3ccccc3C2)c2cn[nH]c2n1 [Compound 41, 4-[1-(3-phenylpropyl)-1,2,3,5-tetrahydro-4H-1,4-benzodiazepin-4-yl]-1H-pyrazolo[3,4-d]pyrimidin-6-amine] | < 50 | < 50
3 | Cc1ccc(CCCN2CCN(c3nc(N)nc4[nH]ncc34)Cc3ccccc32)cc1 [Compound 45, 4-{1-[3-(4-methylphenyl)propyl]-1,2,3,5-tetrahydro-4H-1,4-benzodiazepin-4-yl}-1H-pyrazolo[3,4-d]pyrimidin-6-amine] | 50 to 79 | 50 to 79
4 | COc1cc2c(cc1OC)C(c1cccc(Cl)c1F)N(c1nc(N)nc3[nH]cnc13)CC2 (stereo not drawn) [Compound 49, 6-[1-(3-chloro-2-fluorophenyl)-6,7-dimethoxy-3,4-dihydroisoquinolin-2(1H)-yl]-9H-purin-2-amine] | < 50 | < 50
5 | COc1cc2c(cc1OC)C(CCc1ccccc1)N(c1nc(N)nc3[nH]ncc13)CC2 (stereo not drawn) [Compound 51, 4-[6,7-dimethoxy-1-(2-phenylethyl)-3,4-dihydroisoquinolin-2(1H)-yl]-1H-pyrazolo[3,4-d]pyrimidin-6-amine] | 50 to 79 | < 50

Now from value to compound:

Row | inhibition at 30 µM (RET kinase) [%] | inhibition at 30 µM (EphA8) [%] | SMILES
6 | 50 to 79 | < 50 | Nc1nc(N2CCN(CCCc3cccc(F)c3)c3ccccc3C2)c2nc[nH]c2n1 [Compound 39, 6-{1-[3-(3-fluorophenyl)propyl]-1,2,3,5-tetrahydro-4H-1,4-benzodiazepin-4-yl}-9H-purin-2-amine]
7 | 50 to 79 | < 50 | Nc1nc(N2CCN(CCCc3ccccc3)c3ccccc3C2)c2nc[nH]c2n1 [Compound 40, 6-[1-(3-phenylpropyl)-1,2,3,5-tetrahydro-4H-1,4-benzodiazepin-4-yl]-9H-purin-2-amine]
8 | < 50 | < 50 | Nc1nc(N2CCN(Cc3ccc(Cl)c(Cl)c3)c3ccccc3C2)c2nc[nH]c2n1 [Compound 42, 6-[1-(3,4-dichlorobenzyl)-1,2,3,5-tetrahydro-4H-1,4-benzodiazepin-4-yl]-9H-purin-2-amine]
9 | 50 to 79 | 50 to 79 | Nc1nc(N2CCN(Cc3ccc(Cl)c(Cl)c3)c3ccccc3C2)c2cn[nH]c2n1 [Compound 43, 4-[1-(3,4-dichlorobenzyl)-1,2,3,5-tetrahydro-4H-1,4-benzodiazepin-4-yl]-1H-pyrazolo[3,4-d]pyrimidin-6-amine]
10 | < 50 | < 50 | Cc1ccc(CCCN2CCN(c3nc(N)nc4[nH]cnc34)Cc3ccccc32)cc1 [Compound 44, 6-{1-[3-(4-methylphenyl)propyl]-1,2,3,5-tetrahydro-4H-1,4-benzodiazepin-4-yl}-9H-purin-2-amine]
11 | 50 to 79 | < 50 | Nc1nc(N2CCN(Cc3ccc(F)c(F)c3)c3ccccc3C2)c2nc[nH]c2n1 [Compound 46, 6-[1-(3,4-difluorobenzyl)-1,2,3,5-tetrahydro-4H-1,4-benzodiazepin-4-yl]-9H-purin-2-amine]
12 | 50 to 79 | < 50 | Nc1nc(N2CCN(Cc3ccc(F)c(F)c3)c3ccccc3C2)c2cn[nH]c2n1 [Compound 47, 4-[1-(3,4-difluorobenzyl)-1,2,3,5-tetrahydro-4H-1,4-benzodiazepin-4-yl]-1H-pyrazolo[3,4-d]pyrimidin-6-amine]
